Reference: PMC3400123 (Bioorganic & medicinal chemistry, 2012)

Tests used:
MDCKII-MDR1 cells = experiment: Transport and cell association across MDCKII-MDR1 monolayers; format: in vitro ADME; conditions: for PAB (+ inh): absorptive direction; for PAB (+ inh) / PBA (+ inh): with 5 × 10^−6 M LSN 335984, 5 × 10^−6 M dye, BSA; for Ratio (+/− inh) for % cell associated dye: inhibited / uninhibited pump; for PBA / PBA (+ inh): secretory direction; for PBA: no inhibitor, 5 × 10^−6 M dye, 4.3 mg mL^−1 BSA
human P-gp-His10 = human P-gp-His10 (Homo sapiens, UniProt P08183); experiment: Stimulation of ATPase activity of isolated human P-gp-His10; conditions: read-out: KM (concentration of compound required to achieve 50% maximal stimulation); isolated human P-gp-His10 in sheep brain phosphatidylethanolamine
human P-gp-His10, sequence (P08183 whole entry): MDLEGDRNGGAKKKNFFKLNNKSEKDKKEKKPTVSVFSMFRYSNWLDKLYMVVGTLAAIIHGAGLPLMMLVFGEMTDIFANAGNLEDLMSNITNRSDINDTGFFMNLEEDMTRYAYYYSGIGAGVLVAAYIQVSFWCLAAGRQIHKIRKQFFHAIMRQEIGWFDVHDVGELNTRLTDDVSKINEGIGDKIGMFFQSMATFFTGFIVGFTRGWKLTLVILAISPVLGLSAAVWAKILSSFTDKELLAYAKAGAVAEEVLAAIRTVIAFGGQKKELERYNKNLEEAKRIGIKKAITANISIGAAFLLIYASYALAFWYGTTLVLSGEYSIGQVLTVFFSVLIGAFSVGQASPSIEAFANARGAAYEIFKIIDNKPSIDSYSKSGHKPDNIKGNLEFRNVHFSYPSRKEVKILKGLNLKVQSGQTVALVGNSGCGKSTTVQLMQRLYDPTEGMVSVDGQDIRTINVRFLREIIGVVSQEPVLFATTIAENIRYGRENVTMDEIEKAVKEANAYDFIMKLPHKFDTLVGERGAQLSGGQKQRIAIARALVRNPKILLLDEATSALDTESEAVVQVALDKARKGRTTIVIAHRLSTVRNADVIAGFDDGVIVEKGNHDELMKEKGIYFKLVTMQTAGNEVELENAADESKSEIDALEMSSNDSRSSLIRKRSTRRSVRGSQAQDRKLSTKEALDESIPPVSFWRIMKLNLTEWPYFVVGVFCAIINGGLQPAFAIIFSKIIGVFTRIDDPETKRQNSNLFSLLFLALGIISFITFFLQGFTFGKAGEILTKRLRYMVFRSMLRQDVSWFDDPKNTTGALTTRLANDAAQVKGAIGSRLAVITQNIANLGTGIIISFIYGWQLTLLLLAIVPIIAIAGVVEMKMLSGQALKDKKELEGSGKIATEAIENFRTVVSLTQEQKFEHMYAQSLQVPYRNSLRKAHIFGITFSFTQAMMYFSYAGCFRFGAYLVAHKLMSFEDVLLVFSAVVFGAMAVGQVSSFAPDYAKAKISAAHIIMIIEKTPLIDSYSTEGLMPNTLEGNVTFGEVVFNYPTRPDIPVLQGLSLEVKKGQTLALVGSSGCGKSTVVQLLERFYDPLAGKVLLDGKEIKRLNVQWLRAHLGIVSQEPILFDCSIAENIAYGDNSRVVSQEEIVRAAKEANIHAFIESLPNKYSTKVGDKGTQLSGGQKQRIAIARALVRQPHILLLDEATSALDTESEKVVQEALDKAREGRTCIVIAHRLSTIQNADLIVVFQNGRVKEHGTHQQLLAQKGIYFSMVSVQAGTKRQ

SMILES | PAB (+ inh) (MDCKII-MDR1 cells) | Ratio (+/− inh) for % cell associated dye (MDCKII-MDR1 cells) | PBA (MDCKII-MDR1 cells) | PBA (+ inh) (MDCKII-MDR1 cells) | Km (human P-gp-His10)
CCN(CC)C(=O)c1ccc(-c2c3ccc(N(C)C)cc3[s+]c3c4c5c(cc23)CCCN5CCC4)s1.F[P-](F)(F)(F)(F)F [Compound 5, 12-(dimethylamino)-2,3,6,7-tetrahydro-9-(5-(diethylcarbamoyl)thiophen-2-yl)-1H,5H-thioxantheno[2,3,4-ij]quinolizin-14-ium hexafluorophosphate] | ≤ 1 ≤ 1 10^−9 m s^−1 | 3.3-6.1 | 210 ± 22 10^−9 m s^−1 | 17.0 ± 0.4 10^−9 m s^−1 | 3.6 ± 0.4 µM
CCN(CC)C(=O)c1ccc(-c2c3ccc(N(C)C)cc3[s+]c3cc(N(C)C)ccc23)s1 [Compound 1, 3,6-bis(dimethylamino)-9-(5-(diethylcarbamoyl)thiophen-2-yl)thioxan-thylium hexafluorophosphate] |  |  |  |  | 5.7 ± 1 µM
CCN(CC)C(=S)c1ccc(-c2c3ccc(N(C)C)cc3[s+]c3cc(N(C)C)ccc23)s1.F[P-](F)(F)(F)(F)F [Compound 2, 3,6-bis(dimethylamino)-9-(5-(diethylcarbamothioyl)thiophen-2-yl)thioxanthylium hexafluorophosphate] | ≤ 1 ≤ 1 10^−9 m s^−1 |  | 210 ± 17 10^−9 m s^−1 |  | 5.8 ± 0.6 µM
CCN(CC)C(=S)c1ccc(-c2c3ccc(N(C)C)cc3[s+]c3c4c5c(cc23)CCCN5CCC4)s1.F[P-](F)(F)(F)(F)F [Compound 6, 12-(Dimethylamino)-2,3,6,7-tetrahydro-9-(5-(diethylcarbamothioyl)-thiophen-2-yl)-1H,5H-thioxantheno[2,3,4-ij]quinolizin-14-ium hexafluorophosphate] | ≤ 1 ≤ 1 10^−9 m s^−1 | 1.2-2.1 | 65.0 ± 1.5 10^−9 m s^−1 | 2.7 ± 0.1 10^−9 m s^−1 | 2.3 ± 0.4 µM
CN(C)c1ccc2c(-c3ccc(C(=O)N4CCCCC4)s3)c3cc4c5c(c3[s+]c2c1)CCCN5CCC4.F[P-](F)(F)(F)(F)F [Compound 7, 12-(dimethylamino)-2,3,6,7-tetrahydro-9-(N-piperidyl-2-thienyl-5-carboxamido)-1H,5H-thioxantheno[2,3,4-ij]quinolizin-14-ium hexafluorophosphate] | ≤ 1 ≤ 1 10^−9 m s^−1 | 3.3-6.1 | 220 ± 29 10^−9 m s^−1 | 8.1 ± 0.1 10^−9 m s^−1 | 1.9 ± 0.4 µM

Next, values leading:

PAB (+ inh) (MDCKII-MDR1 cells) | Ratio (+/− inh) for % cell associated dye (MDCKII-MDR1 cells) | PBA (MDCKII-MDR1 cells) | PBA (+ inh) (MDCKII-MDR1 cells) | Km (human P-gp-His10) | SMILES
≤ 1 ≤ 1 10^−9 m s^−1 | 1.2-2.1 |  | 1.0 ± 0.1 10^−9 m s^−1 | 3.1 ± 0.7 µM | CCN(CC)C(=S)c1ccc(-[c+]2c3ccc(N(C)C)cc3sc3cc4c(cc32)C(C)(C)CCN4C)s1.F[P-](F)(F)(F)(F)F [Compound 10, 6-(5-(diethylcarbamothioyl)thiophen-2-yl)-9-(dimethylamino)-1,4,4-trimethyl-2,3,4,6-tetrahydro-1H-thiochromeno[3,2-g]quinolin-6-ylium hexafluorophosphate]
≤ 1 ≤ 1 10^−9 m s^−1 | 3.3-6.1 | 370 ± 17 10^−9 m s^−1 | 27.0 ± 0.3 10^−9 m s^−1 | 2.2 ± 1 µM | CCN(CC)C(=O)c1ccc(-[c+]2c3ccc(N(C)C)cc3sc3cc4c(cc32)C(C)(C)CCN4C)s1.F[P-](F)(F)(F)(F)F [Compound 9, 6-(5-(diethylcarbamoyl)thiophen-2-yl)-9-(dimethylamino)-1,4,4-trimethyl-2,3,4,6-tetrahydro-1H-thiochromeno[3,2-g]quinolin-6-ylium hexafluorophosphate]
